Source: ChEMBL document CHEMBL1140289, “Studies on the apoptotic activity of natural and synthetic retinoids: discovery of a new class of synthetic terphenyls that potently support cell growth and inhibit apoptosis in neuronal and HL-60 cells” (2005)

Experiments:
HL-60 [1] = experiment: Effect (1 uM) on HL-60 cell apoptosis cultured for 72 hours in nonsupplemented serum-free medium; format: functional, Homo sapiens
HL-60 [2] = experiment: Effect (1 uM) on HL-60 cell growth cultured for 72 hours in nonsupplemented serum-free medium; format: functional, Homo sapiens

Q: Which results are given for CC(=O)OC[C@H](OC(C)=O)[C@@](C)(O)/C=C/C=C(C)/C=C/C1=C(C)CCCC1(C)C?
A: Apoptosis (HL-60 [1]): 30%; Activity (HL-60 [2]): 207 no. of living cells (10E3) /mL

Q: How did the Apoptosis (HL-60 [1]) turn out when COc1cc(-c2ccc(-c3ccc(C(=O)O)cc3)cc2)cc(OC)c1OC was run?
A: 18%

Q: What about the Activity (HL-60 [2]) of the same compound?
A: 300 no. of living cells (10E3) /mL

Q: How did the Apoptosis (HL-60 [1]) turn out when CC1=CCCC(C)(C)\C1=C/C=C(C)/C=C/C=C(\C)[C@@H](O)CO was run?
A: 34%

Q: What about the Activity (HL-60 [2]) of the same compound?
A: 181 no. of living cells (10E3) /mL

Q: With CC(=O)CC[C@H](O)[C@@](C)(O)/C=C/C=C(C)/C=C/C1=C(C)CCCC1(C)C as the compound, how does the Apoptosis (HL-60 [1]) read?
A: 41%

Q: And the Activity (HL-60 [2])?
A: 129 no. of living cells (10E3) /mL

Q: With COc1cc(-c2cccc(-c3ccc(C(=O)O)cc3)c2)cc(OC)c1OC as the compound, how does the Apoptosis (HL-60 [1]) read?
A: 17%

Q: What about the Activity (HL-60 [2]) of the same compound?
A: 350 no. of living cells (10E3) /mL

Q: Which results are given for CC1=C(/C=C/C(C)=C/C=C/[C@](C)(O)[C@@H](O)CO)C(C)(C)CCC1?
A: Apoptosis (HL-60 [1]): 37%; Activity (HL-60 [2]): 149 no. of living cells (10E3) /mL

Q: For CC1(C)CCC(C)(C)c2cc(/C=C/c3ccc(C(=O)O)cc3)ccc21, which Apoptosis (HL-60 [1]) is on record?
A: 36%

Q: And the Activity (HL-60 [2])?
A: 155 no. of living cells (10E3) /mL

Q: For CC(=O)OC[C@H](OC(C)=O)/C(C)=C/C=C/C(C)=C/C=C1/C(C)=CCCC1(C)C, which Apoptosis (HL-60 [1]) is on record?
A: 40%

Q: What about the Activity (HL-60 [2]) of the same compound?
A: 129 no. of living cells (10E3) /mL

Q: How did the Apoptosis (HL-60 [1]) turn out when COc1cc(/C=C\c2ccc(C(=O)O)cc2)cc(OC)c1OC was run?
A: 42%

Q: And the Activity (HL-60 [2])?
A: 100 no. of living cells (10E3) /mL

Q: Which results are given for COc1cc(/C=C/c2ccc(C(=O)O)cc2)cc(OC)c1OC?
A: Apoptosis (HL-60 [1]): 36%; Activity (HL-60 [2]): 166 no. of living cells (10E3) /mL

Q: With COc1cc(-c2ccccc2-c2ccc(C(=O)O)cc2)cc(OC)c1OC as the compound, how does the Apoptosis (HL-60 [1]) read?
A: 22%

Q: What about the Activity (HL-60 [2]) of the same compound?
A: 220 no. of living cells (10E3) /mL

Q: CC1(C)CCC(C)(C)c2cc(/C=C\c3ccc(C(=O)O)cc3)ccc21 was tested. Which Apoptosis (HL-60 [1]) did it give?
A: 43%

Q: And the Activity (HL-60 [2])?
A: 100 no. of living cells (10E3) /mL
